Laboratory results: patent US9302003B2, “Compositions comprising a radiosensitizer and an anti-cancer agent and methods of uses thereof” (priority 2009, dated 2016)

System: F98 glioma
Assay: Surviving assay in Fischer rats implanted with F98 glioma, intra carotid drug delivery with or without Gamma Knife irradiation
Type: in vivo
Settings: F98 glioma-bearing Fischer rats, 1 ml/rat intra-carotid 10 days after implantation; LipoGold with 15 Gy Gamma Knife 8 h later; FIG. 6

N.N.[Cl][Pt][Cl] [cisplatin, cis-diammineplatinum(II) dichloride]
life span / surviving time: died before sham animals

O=C1[O][Pt]2([NH][C@@H]3CCCC[C@H]3[NH]2)[O]C1=O [oxaliplatin]
life span / surviving time: short life span, similar to sham animals
